Laboratory results published in US8383139B2 (Bayer CropScience AG, priority 2008, dated 2013).
One block for each compound: values may come before it.

Experiments:
[1] = log P by HPLC on reversed-phase columns (C 18), EEC Directive 79/831 Annex V.A8; format: physicochemical; settings: reversed-phase C18 HPLC column, pH 2.3, [a] HPLC, acid region pH 2.3, 0.1% aqueous phosphoric acid and acetonitrile; read-out: log p
Alternaria solani = test: Alternaria test (tomato)/protective; format: in vivo; settings: 72 h, 100 ppm active substance, protective, evaluation 3 days after inoculation, read-out: degree of effectiveness
Procedure: (§1) • Solvents: 24.5 parts by weight of acetone • 24.5 parts by weight of dimethylacetamide • Emulsifier: 1 part by weight of alkylaryl polyglycol ether (polyoxyethylene (16) tristearylphenyl ether)
(§2) To prepare a suitable active substance composition, 1 part by weight of active substance is mixed with the given amounts of solvents and emulsifier and the concentrate is diluted to the desired concentration using water.
For the testing of protective effectiveness, young plants are sprayed with the active substance composition in the application rate given. After the spray coating has been dried on, the plants are inoculated with an aqueous suspension of spores of Alternaria solani. The plants are then placed in an incubation chamber at approximately 20° C. and 100% relative humidity.
Evaluation is carried out 3 days after the inoculation. In this connection, 0% means a degree of effectiveness corresponding to that of the control, while a degree of effectiveness of 100% means that no infestation is observed.

Uromyces appendiculatus = test: Uromyces test (beans)/protective; format: in vivo; settings: 240 h, 100 ppm active substance, protective, evaluation 10 days after inoculation, read-out: degree of effectiveness
Procedure: as §1, §2
For the testing of protective effectiveness, young plants are sprayed with the active substance composition in the application rate given. After the spray coating has been dried on, the plants are inoculated with an aqueous suspension of the spores of the bean rust pathogen Uromyces appendiculatus and then remain in an incubation chamber at approximately 20° C. and 100% relative humidity for 1 day.
The plants are then placed in a greenhouse at approximately 21° C. and a relative humidity of approximately 90%.
Evaluation is carried out 10 days after the inoculation. In this connection, 0% means a degree of effectiveness corresponding to that of the control, while a degree of effectiveness of 100% means that no infestation is observed.

Puccinia triticina = Puccinia triticina test (wheat)/protective; format: in vivo; settings: 192 h, 500 ppm active substance, protective, evaluation 8 days after inoculation, read-out: degree of effectiveness
Procedure: • Solvent: 50 parts by weight of N,N-dimethylacetamide • Emulsifier: 1 part by weight of alkylaryl polyglycol ether (polyoxyethylene (16) tristearylphenyl ether) To prepare a suitable active substance composition, 1 part by weight of active substance is mixed with the given amounts of solvent and emulsifier and the concentrate is diluted to the desired concentration using water. For the testing of protective effectiveness, young plants are sprayed with the active substance composition in the application rate given. After the spray coating has been dried on, the plants are sprayed with spores with a suspension of spores of Puccinia triticina. The plants remain in an incubation chamber at 20° C. and 100% relative humidity for 48 hours. The plants are placed in a greenhouse at a temperature of approximately 20° C. and a relative humidity of approximately 80%. Evaluation is carried out 8 days after the inoculation. In this connection, 0% means a degree of effectiveness corresponding to that of the control, while a degree of effectiveness of 100% means that no infestation is observed.

Sphaerotheca fuliginea = test: Sphaerotheca test (cucumber)/protective; format: in vivo; settings: Podosphaera fuliginea, 168 h, 500 ppm active substance, protective, evaluation 7 days after inoculation, read-out: degree of effectiveness
Procedure: • Solvents: 49 parts by weight of N,N-dimethylformamide • Emulsifier: 1 part by weight of alkylaryl polyglycol ether (polyoxyethylene (16) tristearylphenyl ether) To prepare a suitable active substance composition, 1 part by weight of active substance is mixed with the given amounts of solvents and emulsifier and the concentrate is diluted to the desired concentration using water. For the testing of protective effectiveness, young cucumber plants are sprayed with the active substance composition in the application rate given. One day after the treatment, the plants are inoculated with a suspension of spores of Sphaerotheca fuliginea. Subsequently, the plants are placed in a greenhouse at 70% relative humidity and at a temperature of 23° C. Evaluation is carried out 7 days after the inoculation. In this connection, 0% means a degree of effectiveness corresponding to that of the control, while a degree of effectiveness of 100% means that no infestation is observed.

Septoria tritici = Septoria tritici test (wheat)/protective; format: in vivo; settings: Zymoseptoria tritici, 504 h, 500 ppm active substance, protective, evaluation 21 days after inoculation, read-out: degree of effectiveness
Procedure: • Solvent: 50 parts by weight of N,N-dimethylacetamide • Emulsifier: 1 part by weight of alkylaryl polyglycol ether (polyoxyethylene (16) tristearylphenyl ether) To prepare a suitable active substance composition, 1 part by weight of active substance is mixed with the given amounts of solvent and emulsifier and the concentrate is diluted to the desired concentration using water. For the testing of protective effectiveness, young plants are sprayed with the active substance composition at the application rate given. After the spray coating has dried on, the plants are sprayed with a suspension of spores of Septoria tritici. The plants remain in an incubation chamber at 20° C. and 100% relative humidity for 48 hours. The plants are afterwards placed under a transparent hood at 15° C. and 100% relative humidity for a further 60 hours. The plants are placed in a greenhouse at a temperature of approximately 15° C. and a relative humidity of 80%. Evaluation is carried out 21 days after the inoculation. In this connection, 0% means a degree of effectiveness corresponding to that of the control, while a degree of effectiveness of 100% means that no infestation is observed.

SMILES: Cc1cc(Oc2nc(C(C)c3ccc(Cl)cc3)ns2)c(Cl)cc1N=CN(C)C(C)C (centres unmarked) [Example 22, N′-[5-chloro-4-({3-[1-(4-chlorophenyl)ethyl]-1,2,4-thiadiazol-5-yl}oxy)-2-methylphenyl]-N-methyl-N-(propan-2-yl)imidoformamide]
chromatographic logP [1]: 2.52
pest or weed control at 100 ppm (Alternaria solani): ≥ 70%
pest or weed control at 100 ppm (Uromyces appendiculatus): ≥ 70%
pest or weed control at 500 ppm (Puccinia triticina): ≥ 70%

SMILES: CCC(c1ccccc1)c1nsc(Oc2cc(C)c(N=CN(C)CC)cc2C)n1 (centres unmarked) [Example 6, N′-(2,5-dimethyl-4-{[3-(1-phenylpropyl)-1,2,4-thiadiazol-5-yl]oxy}phenyl)-N-ethyl-N-methylimidoformamide]
chromatographic logP [1]: 2.08
pest or weed control at 100 ppm (Alternaria solani): ≥ 70%
pest or weed control at 100 ppm (Uromyces appendiculatus): ≥ 70%
pest or weed control at 500 ppm (Sphaerotheca fuliginea): ≥ 70%
pest or weed control at 500 ppm (Puccinia triticina): ≥ 70%
pest or weed control at 500 ppm (Septoria tritici): ≥ 70%

SMILES: Cc1cc(Oc2nc(C(C)c3ccc(Cl)cc3)ns2)c(C)cc1N=CN(C)C(C)C (centres unmarked) [Example 19, N′-[4-({3-[1-(4-chlorophenyl)ethyl]-1,2,4-thiadiazol-5-yl}oxy)-2,5-dimethylphenyl]-N-methyl-N-(propan-2-yl)imidoformamide]
chromatographic logP [1]: 2.46
pest or weed control at 100 ppm (Alternaria solani): ≥ 70%
pest or weed control at 100 ppm (Uromyces appendiculatus): ≥ 70%
pest or weed control at 500 ppm (Sphaerotheca fuliginea): ≥ 70%
pest or weed control at 500 ppm (Puccinia triticina): ≥ 70%
pest or weed control at 500 ppm (Septoria tritici): ≥ 70%

SMILES: Cc1cc(Oc2nc(Cc3ccccc3C(F)(F)F)ns2)c(C)cc1N=CN1CCCCC1 [Example 43, 2,5-dimethyl-N-(piperidin-1-ylmethylidene)-4-({3-[2-(trifluoromethyl)benzyl]-1,2,4-thiadiazol-5-yl}oxy)aniline]
chromatographic logP [1]: 2.15
pest or weed control at 100 ppm (Alternaria solani): ≥ 70%
pest or weed control at 100 ppm (Uromyces appendiculatus): ≥ 70%
pest or weed control at 500 ppm (Sphaerotheca fuliginea): ≥ 70%
pest or weed control at 500 ppm (Puccinia triticina): ≥ 70%

SMILES: Cc1cc(Oc2nc(C(C)(C)c3ccc(Cl)cc3)ns2)c(C)cc1N=CN(C)C(C)C [Example 27, N′-[4-({3-[2-(4-chlorophenyl)propan-2-yl]-1,2,4-thiadiazol-5-yl}oxy)-2,5-dimethylphenyl]-N-methyl-N-(propan-2-yl)imidoformamide]
chromatographic logP [1]: 2.71
pest or weed control at 100 ppm (Alternaria solani): ≥ 70%
pest or weed control at 100 ppm (Uromyces appendiculatus): ≥ 70%
pest or weed control at 500 ppm (Sphaerotheca fuliginea): ≥ 70%

SMILES: Cc1cc(Oc2nc(C(C)c3ccccc3)ns2)c(C)cc1N=CN1CCCCC1 (centres unmarked) [Example 8, 2,5-dimethyl-4-{[3-(1-phenylethyl)-1,2,4-thiadiazol-5-yl]oxy}-N-(piperidin-1-ylmethylidene)aniline]
chromatographic logP [1]: 1.95
pest or weed control at 100 ppm (Alternaria solani): ≥ 70%
pest or weed control at 100 ppm (Uromyces appendiculatus): ≥ 70%
pest or weed control at 500 ppm (Sphaerotheca fuliginea): ≥ 70%
pest or weed control at 500 ppm (Puccinia triticina): ≥ 70%
pest or weed control at 500 ppm (Septoria tritici): ≥ 70%

SMILES: Cc1cc(Oc2nc(Cc3ccc4c(c3)OCO4)ns2)c(C)cc1N=CN1CCCCC1 [Example 45, 4-{[3-(1,3-benzodioxol-5-ylmethyl)-1,2,4-thiadiazol-5-yl]oxy}-2,5-dimethyl-N-(piperidin-1-ylmethylidene)aniline]
chromatographic logP [1]: 1.84
pest or weed control at 100 ppm (Alternaria solani): ≥ 70%
pest or weed control at 500 ppm (Sphaerotheca fuliginea): ≥ 70%
pest or weed control at 500 ppm (Puccinia triticina): ≥ 70%
pest or weed control at 500 ppm (Septoria tritici): ≥ 70%

Now from value to compound, other results behind:

chromatographic logP [1]: 1.91
SMILES: Cc1cc(Oc2nc(Cc3ccccc3)ns2)c(C)cc1N=CN1CCCCC1 [Example 36, 4-[(3-benzyl-1,2,4-thiadiazol-5-yl)oxy]-2,5-dimethyl-N-(piperidin-1-ylmethylidene)aniline]
pest or weed control at 100 ppm (Alternaria solani): ≥ 70%
pest or weed control at 100 ppm (Uromyces appendiculatus): ≥ 70%
pest or weed control at 500 ppm (Sphaerotheca fuliginea): ≥ 70%
pest or weed control at 500 ppm (Puccinia triticina): ≥ 70%
pest or weed control at 500 ppm (Septoria tritici): ≥ 70%

chromatographic logP [1]: 2.73
SMILES: CCN(C)C=Nc1cc(Cl)c(Oc2nc(C(C)(C)c3ccc(Cl)cc3)ns2)cc1C [Example 28, N′-[5-chloro-4-({3-[2-(4-chlorophenyl)propan-2-yl]-1,2,4-thiadiazol-5-yl}oxy)-2-methylphenyl]-N-ethyl-N-methylimidoformamide]
pest or weed control at 100 ppm (Alternaria solani): ≥ 70%
pest or weed control at 100 ppm (Uromyces appendiculatus): ≥ 70%
pest or weed control at 500 ppm (Sphaerotheca fuliginea): ≥ 70%
pest or weed control at 500 ppm (Puccinia triticina): ≥ 70%
pest or weed control at 500 ppm (Septoria tritici): ≥ 70%

chromatographic logP [1]: 2.28
SMILES: Cc1cc(Oc2nc(Cc3cccc(C(F)(F)F)c3)ns2)c(C)cc1N=CN1CCCCC1 [Example 13, 2,5-dimethyl-N-(piperidin-1-ylmethylidene)-4-({3-[3-(trifluoromethyl)benzyl]-1,2,4-thiadiazol-5-yl}oxy)aniline]
pest or weed control at 100 ppm (Alternaria solani): ≥ 70%
pest or weed control at 100 ppm (Uromyces appendiculatus): ≥ 70%
pest or weed control at 500 ppm (Sphaerotheca fuliginea): ≥ 70%
pest or weed control at 500 ppm (Puccinia triticina): ≥ 70%
pest or weed control at 500 ppm (Septoria tritici): ≥ 70%

chromatographic logP [1]: 2.05
SMILES: CCN(C)C=Nc1cc(C)c(Oc2nc(Cc3cccc(C(F)(F)F)c3)ns2)cc1C [Example 10, N′-[2,5-dimethyl-4-({3-[3-(trifluoromethyl)benzyl]-1,2,4-thiadiazol-5-yl}oxy)phenyl]-N-ethyl-N-methylimidoformamide]
pest or weed control at 100 ppm (Alternaria solani): ≥ 70%
pest or weed control at 100 ppm (Uromyces appendiculatus): ≥ 70%
pest or weed control at 500 ppm (Sphaerotheca fuliginea): ≥ 70%
pest or weed control at 500 ppm (Puccinia triticina): ≥ 70%
pest or weed control at 500 ppm (Septoria tritici): ≥ 70%

chromatographic logP [1]: 2.3
SMILES: CCN(C)C=Nc1cc(C)c(Oc2nc(Cc3ccc(Cl)c(Cl)c3)ns2)cc1C [Example 51, N′-(4-{[3-(3,4-dichlorobenzyl)-1,2,4-thiadiazol-5-yl]oxy}-2,5-dimethylphenyl)-N-ethyl-N-methylimidoformamide]
pest or weed control at 100 ppm (Alternaria solani): ≥ 70%
pest or weed control at 100 ppm (Uromyces appendiculatus): ≥ 70%
pest or weed control at 500 ppm (Sphaerotheca fuliginea): ≥ 70%
pest or weed control at 500 ppm (Puccinia triticina): ≥ 70%
pest or weed control at 500 ppm (Septoria tritici): ≥ 70%

chromatographic logP [1]: 2.1
SMILES: CCN(C)C=Nc1cc(C)c(Oc2nc(Cc3ccccc3C(F)(F)F)ns2)cc1C [Example 42, N′-[2,5-dimethyl-4-({3-[2-(trifluoromethyl)benzyl]-1,2,4-thiadiazol-5-yl}oxy)phenyl]-N-ethyl-N-methylimidoformamide]
pest or weed control at 100 ppm (Alternaria solani): ≥ 70%
pest or weed control at 100 ppm (Uromyces appendiculatus): ≥ 70%
pest or weed control at 500 ppm (Sphaerotheca fuliginea): ≥ 70%
pest or weed control at 500 ppm (Puccinia triticina): ≥ 70%
pest or weed control at 500 ppm (Septoria tritici): ≥ 70%

chromatographic logP [1]: 2.96
SMILES: Cc1cc(Oc2nc(C(C)(C)c3ccc(Cl)cc3)ns2)c(Cl)cc1N=CN1CCCCC1 [Example 29, 5-chloro-4-({3-[2-(4-chlorophenyl)propan-2-yl]-1,2,4-thiadiazol-5-yl}oxy)-2-methyl-N-(piperidin-1-ylmethylidene)aniline]
pest or weed control at 100 ppm (Alternaria solani): ≥ 70%
pest or weed control at 500 ppm (Sphaerotheca fuliginea): ≥ 70%
pest or weed control at 500 ppm (Puccinia triticina): ≥ 70%
pest or weed control at 500 ppm (Septoria tritici): ≥ 70%
